In patent US20240125768A1, “METHODS FOR MODULATING A SRC-1 CONDENSATE” (ETERN BIOPHARMA (SHANGHAI) CO., LTD., priority 2021, published 2024):
“Also recorded” adds a separate entry of the source.

How the values were obtained:
BEAS-2B cell colonies = experiment: BEAS-2B colonies co-expressing SRC-1 and YAP; type: cell-based, human; settings: SRC-1 and YAP co-expressed BEAS-2B cell colonies
Source text: FIG. 7X illustrates the colonies of BEAS-2B cells overexpressing with both YAP and SRC-1 treated w/o EVG.
To explore whether SRC-1 and YAP cooperate in driving tumorigenesis, normal human lung bronchial epithelium cells (BEAS-2B) was transformed with YAP and/or SRC-1.

SRC-1 = experiment: Biolayer interferometry (BLI); type: binding; settings: biotin labeled EVG on streptavidin biosensors, purified SRC-1 protein
Method: FIG. 7R illustrates bio-layer interferometry (BLI) assays were performed with purified SRC-1 protein and EVG. Biotin labeled EVG was immobilized on the streptavidin biosensors and dipped into wells containing increasing concentrations of SRC-1 protein.
The binding between EVG and SRC1 was examined using BLI Octet RED96 (ForteEio Inc., Menlo Park, CA). Streptavidin biosensors (ForteBio Inc.) were pre-soaked (30 min) in assay buffer (20 mM TrisHCl pH8.0, 150 mM NaCl and 1% DMSO), then coated in an assay buffer containing 100 uM EVG-biotin for 7 min. As a control, sensors were incubated in an assay buffer containing 100 uM Biocytin, followed by a 6 min wash with assay buffer containing 1% BSA and 0.1% Tween20. Indicated concentrations of truncated SRC1protein ([…], 0 μg/ml) were diluted in assay buffer containing 1% BSA/0.1% Tween20 and flowed through biosensors coated with Bio-EVG or biocytin for 5 min. A 5 min dissociation was followed. Data was analyzed using OctetRED analysis software.

SRC-1 phase separation = biological target: T1, SRC-1 phase separation (Homo sapiens, UniProt Q15788); experiment: High content image of mScarlet-SRC-1 puncta in H1299 cells; type: cell-based; settings: 20 μM
T1 construct: expressed in transfected cells; host or cells: H1299
Method: FIG. 7Q illustrates quantification result of high content image data for mScarlet-SRC-1 puncta in H1299 cells treated w/o 20 μM EVG. ***p<0.001.
Eight hours after transfection, H1299 cells expressing mScarlet-SRC-1 were seeded in 24-well glass bottom plate (Cellvis P24-1.5H-N) and EVG was added two hours later. Images were obtained with the Operetta CLSTM high-content cell imaging analysis system (PerkinElmer Inc., Waltham, MA, USA). The 63× objective lens was applied in each condition. Data was analyzed by images collected from over 100 representative fields in each group. The spots quantification was performed based on the area and intensity of the spots through mScarlet channel. GraphPad Prism is used to plot and analyze the high content image results.

YAP [1] = experiment: Western blotting / YAP phostag immunoblotting in SF268 cells; type: cell-based, human; settings: 20 μM
Method: FIG. 7F illustrates SF268 cells were treated with 20 μM elvitegravir (EVG) or […] (PC) for the indicated times and subjected to western blotting analysis.
FIG. 7G illustrates SF268 cells treated with EVG or PC (fedratinib—an inhibitor of the non-receptor tyrosine kinase JAK2 which affects YAP nuclear translocation and phosphorylation) were examined by YAP phostag immunoblotting.

YAP/TEAD4 condensates = experiment: Live cell imaging of YAP/TEAD condensates; type: cell-based; settings: H1299 cells co-transfected with YAP5SA, TEAD4-mTagBFP, mNeoGreen-SRC1; 20 μM
Method: Cells were grown on 24-well glass bottom plate (Cellvis, P24-1.5H-N) and images were taken with the Leica TCS SP8 confocal microscopy system using a 100× oil objective (NA=1.4). Cells were imaged on a heated stage(37° C.) and supplemented with warmed (37° C.) humidified air.
For compounds treatment assay, SF268 cells were co-transfected with YAP5SA, TEAD4-mTagBFP2 and mNeoGreen-SRC1. YAP variant YAP5SA which is insensitive to the upstream Hippo pathway, sequestered YAP in nucleus. To circumvent the limitations brought by red fluorescent proteins, TEAD condensates which have been reported to depend on YAP, were used to characterize YAP/TEAD transcriptional condensates. Six hours after transfection, SF268 cells were seeded on 24-well glass bottom plate (Cellvis, P24-1.5H-N) and compounds were added two hours later. Cells were imaged every 30 mins after EVG or other compounds were added.
Cells were grown on 24-well glass bottom plate (Cellvis, P24-1.5H-N) and images were taken with the Leica TCS SP8 confocal microscopy system using a 100× oil objective (NA=1.4). Cells were imaged on a heated stage (37° C.) and supplemented with warmed (37° C.) humidified air. […]
Data was analyzed by images collected from 100 representative fields in each group. The spots quantification was performed based on the number and intensity of the spots through green (mNeoGreen-SRC1) and blue (TEAD4-mTagBFP2) channel. […]

YAP [2] = experiment: YAP reporter cell-based screen of FDA-approved drugs (luciferase, qPCR validation); settings: YAP reporter cell-based screen in a library of FDA-approved drugs
Source text: FIG. 7B illustrates high-throughput screening results. 449 FDA-approved compounds were screened and evaluated by the z-factor of cell viability and luciferase activity (Blue dots: screened compounds; red dots: positive compounds). The screening criteria is luciferase z-factor <−4 and cell viability >−4. (Positive compound, PC: Fedratinib)
FIG. 7C illustrates qPCR analysis examining the expression of YAP-targeted CTGF and CYR61 was used to validate candidate positive compounds from the screening. Error bars show mean±s.e.m. (n=2).
FIG. 7D illustrates the qPCR analysis of YAP target genes in SF268 cells treated with DMSO or 20 µM EVG for 24 h. Error bars show mean±s.e.m. (n=3).
YAP binding sites were cloned into the NheI and HindIII sites of the pGL4.76 basic vector (Promega) containing heat shock basal promoter. Luciferase activity was measured using the Renilla-Glo® Luciferase Assay System (Promega). Cell viability was measured using CellTiter-Glo® One Solution Assay (Promega). Relative luciferase activity=luciferase activity/cell viability.
Cells were treated with compounds for indicated periods, then total RNAs were extracted with TRIzol™ Reagent (15596018, Invitrogen) and reverse-transcripted using the High efficient cDNA synthesis master mix (FSQ-301, TOYOBO). Quantitative RT-PCR was performed with […] SYBR® Premix Ex Taq™ (RR420, Takara). […]

T1 sequence (Q15788 whole entry): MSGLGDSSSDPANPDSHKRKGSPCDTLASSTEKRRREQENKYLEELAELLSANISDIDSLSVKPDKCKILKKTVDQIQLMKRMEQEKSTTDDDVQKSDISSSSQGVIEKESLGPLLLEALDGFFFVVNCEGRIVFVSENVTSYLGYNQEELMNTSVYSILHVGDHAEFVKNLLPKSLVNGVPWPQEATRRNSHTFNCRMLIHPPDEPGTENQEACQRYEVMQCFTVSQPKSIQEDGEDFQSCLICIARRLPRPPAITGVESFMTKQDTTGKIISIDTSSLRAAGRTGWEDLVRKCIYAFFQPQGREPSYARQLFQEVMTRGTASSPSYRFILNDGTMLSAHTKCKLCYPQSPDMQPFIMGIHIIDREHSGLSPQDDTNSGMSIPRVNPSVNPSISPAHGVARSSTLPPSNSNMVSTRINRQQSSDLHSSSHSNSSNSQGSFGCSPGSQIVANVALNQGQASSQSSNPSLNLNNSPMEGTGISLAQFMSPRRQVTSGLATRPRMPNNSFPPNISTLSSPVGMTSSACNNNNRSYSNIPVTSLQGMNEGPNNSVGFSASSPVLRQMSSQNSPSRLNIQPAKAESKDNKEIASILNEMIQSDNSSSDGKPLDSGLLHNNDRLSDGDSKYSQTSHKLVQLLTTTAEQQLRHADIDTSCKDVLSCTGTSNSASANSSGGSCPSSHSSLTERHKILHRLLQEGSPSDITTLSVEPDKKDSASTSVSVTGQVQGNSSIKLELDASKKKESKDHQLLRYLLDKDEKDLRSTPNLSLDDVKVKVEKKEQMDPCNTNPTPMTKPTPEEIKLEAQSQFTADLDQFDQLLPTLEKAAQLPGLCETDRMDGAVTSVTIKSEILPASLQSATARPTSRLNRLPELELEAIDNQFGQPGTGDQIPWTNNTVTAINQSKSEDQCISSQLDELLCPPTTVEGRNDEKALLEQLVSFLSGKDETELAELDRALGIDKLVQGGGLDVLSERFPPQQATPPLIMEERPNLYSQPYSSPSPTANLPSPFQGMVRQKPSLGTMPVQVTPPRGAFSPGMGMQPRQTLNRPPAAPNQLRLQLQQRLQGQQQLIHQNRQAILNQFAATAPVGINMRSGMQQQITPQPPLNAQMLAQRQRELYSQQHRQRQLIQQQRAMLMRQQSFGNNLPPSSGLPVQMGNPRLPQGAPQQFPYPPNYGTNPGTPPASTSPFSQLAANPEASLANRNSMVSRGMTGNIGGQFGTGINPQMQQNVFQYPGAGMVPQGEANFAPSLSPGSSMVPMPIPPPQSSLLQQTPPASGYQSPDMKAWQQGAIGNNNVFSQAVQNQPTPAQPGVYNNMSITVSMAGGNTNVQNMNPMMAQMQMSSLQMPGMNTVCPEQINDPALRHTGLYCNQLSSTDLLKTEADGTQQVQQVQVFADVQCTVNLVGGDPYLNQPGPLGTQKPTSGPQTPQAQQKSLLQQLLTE

binding to SRC-1 (BLI) (SRC-1): directly binds | SRC-1 phase separation, high content image (mScarlet-SRC-1 puncta) (SRC-1 phase separation): inhibitory effects
SMILES: COc1cc2c(cc1Cc1cccc(Cl)c1F)c(=O)c(C(=O)O)cn2[C@H](CO)C(C)C [EVG, 6-[(3-chloro-2-fluorophenyl)methyl]-1-[(2S)-1-hydroxy-3-methylbutan-2-yl]-7-methoxy-4-oxoquinoline-3-carboxylic acid]
migratory activity at the outer colony border (BEAS-2B cell colonies): dramatically inhibited | phosphorylation pattern in YAP (YAP [1]): unaffected | YAP/TEAD condensates (YAP/TEAD4 condensates): remained intact; also recorded: but not the YAP/TEAD4 condensates | YAP activity (YAP [2]): suppress YAP activity
